Test results from patent US20060148885A1, “Medicinal composition” (Kyowa Hakko Kogyo Co., Ltd., priority 2003, published 2006).
Where a name gives a salt, the structure may show the parent alone.

Tested on: rats with bladder hypertrophy
Experiment: Inhibitory activity on detrusor overactivity: cystometry in rats with partial urethral obstruction
Type: in vivo, SD rats
Conditions: p.o., Compound (Ia) 0.01 mg/kg, tamsulosin 0.03 mg/kg; for amplitude of premicturition contractions (relative value, before administration = 100) / frequency of premicturition contractions (relative value, before administration = 100) / amplitude of micturition contractions (relative value, before administration = 100): average ± standard error; for amplitude of premicturition contractions (relative value, before administration = 100) / frequency of premicturition contractions (relative value, before administration = 100): n = 9-10; for amplitude of micturition contractions (relative value, before administration = 100): index of voiding function; for effect on micturition contractions (voiding function), in words / effect on premicturition contractions (amplitude and frequency), in words: summary of Test Example
Experimental: The experiment was carried out according to the method by Malmgren, et al. [J. Urol., Vol. 142, pp. 1134-1138 (1989)]. Female SD rats of 8 to 9 weeks of age (supplied by Charles River Japan) were used in the test. Five to seven animals of these rats were housed in metal cages and given commercially available chow and water ad libtum, in an animal room maintained at room temperature from 19° C. to 25° C. and humidity from 30% to 70% under illumination for 12 hours (7:00 a.m.-7:00 p.m.) per day. The rats were subjected to operation of partial urethral obstruction. Each animal was anesthetized by intraperitoneal administration of 50 mg/kg pentobarbital sodium (Tokyo Kasei), and the midline incision of the skin and muscle was made in the lower abdomen. A polyethylene tube (PE-20, Becton Dickinson) was inserted into urethra from the urethral orifice to the bladder neck. After the proximal urethra was separated from connective tissues and ligated using double suture, the polyethylene tube was removed to induce partial urethral obstruction. The incised part was sutured with a surgical silk thread. An antibiotic ampicillin (Sigma) was intramusclarly injected (150 mg/kg, once a day, for 3 days). Six weeks after the operation of the partial urethral obstruction, the rats with bladder hypertrophy were subjected to intravesical implantation of catheter. Under anesthesia with pentobarbital sodium, the bladder was exposed by an abdominal midline incision. A polyethylene tube (PE-50, Becton Dickinson), one end of which was blunted not to damage the bladder tissue, was filled with a physiological saline (Otsuka Pharmaceutical Factory) and inserted into the bladder via the bladder apex. The intravesical catheter was fixed with a surgical silk suture. The other end of the catheter was tunneled subcutaneously, drawn out from the dorsal neck, plugged and then fixed to the skin with a suture. Four to seven days after the surgery for implantation of intravesical catheter, a cystometry test was performed. The rats were housed in a Bollman cage (Natsume Seisakusho) and a three-way stopcock was connected to the intravesical catheter, one end of the stopcock was connected to a pressure transducer (Nihon Kohden) and the other end was connected to a 50-mL syringe (Terumo) set in an infusion pump (KD Scientific) for physiological saline infusion. The intravesical pressure was measured with a polygraph system (RMP-6008, Nihon Kohden) via a pressure transducer and a strain pressure amplifier (AP-621G, Nihon Kohden), and recorded on a thermal array recorder (RTA-1200, Nihon Kohden). Sixty to 90 minutes after the completion of the preparation for the measurement, a room temperature physiological saline was continuously infused into the urinary bladder for 30 minutes at a flow rate of 10 mL/h to confirm the occurrence of micturition contractions and premicturition contractions (detrusor overactivity). Thirty minutes after the cessation of the first saline infusion, the saline was again infused intravesically for 30 minutes, and this period is for determination of the data before drug administration. Compound (Ia) was suspended in a 0.5 w/v (weight/volume) % methyl cellulose solution at a concentration of 1 mg/ml. The suspension was further diluted with a 0.5 w/v % methyl cellulose solution to prepare solution for administration [solution for Compound (Ia) administration] at a concentration of 0.01 mg/ml. The solution was orally administered to the rats at a volume of 1 ml/kg. Tamsulosin hydrochloride was dissolved in a 0.5 w/v % methyl cellulose solution at a concentration of 0.03 mg/ml (solution for tamsulosin administration), and the solution was orally administered to the rats at a volume of 1 ml/kg. For investigating the effect of the combined administration, Compound (Ia) solution and the tamsulosin solution were simultaneously and orally administered to the rats, both at a volume of 1 ml/kg each. […]

With `CCOc1ccccc1OCCN[C@H](C)Cc1ccc(OC)c(S(N)(=O)=O)c1` [Tamsulosin, Tamsulosin hydrochloride] the “amplitude of premicturition contractions (relative value, before administration = 100)” value (After 1 hour) was 62.0 ± 5.2 %, the “frequency of premicturition contractions (relative value, before administration = 100)” value (After 1 hour) was 57.8 ± 7.5 % and the “amplitude of micturition contractions (relative value, before administration = 100)” value (After 1 hour) was 108.5 ± 6.4%. The “amplitude of premicturition contractions (relative value, before administration = 100)” value (After 3 hours) was 75.2 ± 5.5 %, the “frequency of premicturition contractions (relative value, before administration = 100)” value (After 3 hours) was 73.2 ± 5.3 % and the “amplitude of micturition contractions (relative value, before administration = 100)” value (After 3 hours) was 108.1 ± 6.0%. The “amplitude of premicturition contractions (relative value, before administration = 100)” value (After 5 hours) was 88.3 ± 7.2 %, the “frequency of premicturition contractions (relative value, before administration = 100)” value (After 5 hours) was 78.4 ± 7.0% and the “amplitude of micturition contractions (relative value, before administration = 100)” value (After 5 hours) was 104.7 ± 6.4%. The “effect on micturition contractions (voiding function), in words” value was “did not affect micturition contractions” and the “effect on premicturition contractions (amplitude and frequency), in words” value was “inhibited premicturition contractions”.
With `C[C@](O)(C(=O)Nc1cccc2c1C(=O)c1sccc1CS2(=O)=O)C(F)(F)F` [Compound (Ia), (S)-(+)-3,3,3-trifluoro-2-hydroxy-2-methyl-N-(5,5,10-trioxo-4,10-dihydrothieno[3,2-c][1]benzothiepin-9-yl)propanamide] the “amplitude of premicturition contractions (relative value, before administration = 100)” value (After 1 hour) was 62.3 ± 7.7 %, the “frequency of premicturition contractions (relative value, before administration = 100)” value (After 1 hour) was 52.3 ± 7.3 % and the “amplitude of micturition contractions (relative value, before administration = 100)” value (After 1 hour) was 109.5 ± 2.2%. The “amplitude of premicturition contractions (relative value, before administration = 100)” value (After 3 hours) was 62.8 ± 7.6 %, the “frequency of premicturition contractions (relative value, before administration = 100)” value (After 3 hours) was 46.2 ± 8.1 % and the “amplitude of micturition contractions (relative value, before administration = 100)” value (After 3 hours) was 105.5 ± 3.8%. The “amplitude of premicturition contractions (relative value, before administration = 100)” value (After 5 hours) was 65.6 ± 7.5 %, the “frequency of premicturition contractions (relative value, before administration = 100)” value (After 5 hours) was 42.4 ± 6.0 % and the “amplitude of micturition contractions (relative value, before administration = 100)” value (After 5 hours) was 96.7 ± 2.4%. The “effect on micturition contractions (voiding function), in words” value was “did not affect micturition contractions” and the “effect on premicturition contractions (amplitude and frequency), in words” value was “inhibited premicturition contractions”.
